# Test results reported in PubChem BioAssay (NCI).
#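 Five compound concentrations were applied to cells in 96-well plates for 48 hours; endpoints were derived by simple linear interpolation of the resulting dose-response curve. GI50 = concentration required for 50% inhibition of growth. TGI: total growth inhibition.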
# Assays:
# Experiment in all cases: growth of human tumour cells (NCI), 48 h
# HCT-15 colon = tested on: HCT-15 colon
# IGROV1 ovarian = tested on: IGROV1 ovarian
# SF-268 CNS = tested on: SF-268 CNS
# NCI/ADR-RES ovarian = tested on: NCI/ADR-RES ovarian
# RXF 393 renal = tested on: RXF 393 renal
# SK-MEL-2 melanoma = tested on: SK-MEL-2 melanoma
# NCI-H23 lung = tested on: NCI-H23 lung
# TK-10 renal = tested on: TK-10 renal
# 786-0 renal = tested on: 786-0 renal
# HOP-92 NSCLC = tested on: HOP-92 NSCLC
# NCI-H226 lung = tested on: NCI-H226 lung
# OVCAR-4 ovarian = tested on: OVCAR-4 ovarian
# M14 melanoma = tested on: M14 melanoma
# T-47D breast = tested on: T-47D breast
# SR leukemia = tested on: SR leukemia
# BT-549 breast = tested on: BT-549 breast
# MALME-3M melanoma = tested on: MALME-3M melanoma
# HOP-62 NSCLC = tested on: HOP-62 NSCLC
# UACC-62 melanoma = tested on: UACC-62 melanoma
# HT29 colon = tested on: HT29 colon
# SN12C renal = tested on: SN12C renal
# SK-MEL-5 melanoma = tested on: SK-MEL-5 melanoma
# CCRF-CEM leukemia = tested on: CCRF-CEM leukemia
# CAKI-1 renal = tested on: CAKI-1 renal
# SF-539 CNS = tested on: SF-539 CNS
# U251 CNS = tested on: U251 CNS
# NCI-H460 lung = tested on: NCI-H460 lung
# SNB-75 CNS = tested on: SNB-75 CNS
# MDA-MB-435 = tested on: MDA-MB-435
# UACC-257 melanoma = tested on: UACC-257 melanoma
# ACHN renal = tested on: ACHN renal
# MCF7 breast = tested on: MCF7 breast
# SK-MEL-28 melanoma = tested on: SK-MEL-28 melanoma
# KM12 colon = tested on: KM12 colon
# MDA-MB-231 breast = tested on: MDA-MB-231 breast
# UO-31 renal = tested on: UO-31 renal
# SW-620 colon = tested on: SW-620 colon
# OVCAR-3 ovarian = tested on: OVCAR-3 ovarian
# HS 578T breast = tested on: HS 578T breast
# OVCAR-8 ovarian = tested on: OVCAR-8 ovarian
# A549 NSCLC = tested on: A549 NSCLC
# DU-145 prostate = tested on: DU-145 prostate
# PC-3 prostate = tested on: PC-3 prostate
# LOX IMVI melanoma = tested on: LOX IMVI melanoma
# A498 renal = tested on: A498 renal
# RPMI-8226 leukemia = tested on: RPMI-8226 leukemia
# HL-60(TB) leukemia = tested on: HL-60(TB) leukemia
# COLO 205 colon = tested on: COLO 205 colon
# SNB-19 CNS = tested on: SNB-19 CNS
# HCT-116 colon = tested on: HCT-116 colon
# HCC-2998 colon = tested on: HCC-2998 colon
# K-562 leukemia = tested on: K-562 leukemia
# NCI-H522 lung = tested on: NCI-H522 lung
# OVCAR-5 ovarian = tested on: OVCAR-5 ovarian
# SF-295 CNS = tested on: SF-295 CNS
# SK-OV-3 ovarian = tested on: SK-OV-3 ovarian
# MOLT-4 leukemia = tested on: MOLT-4 leukemia
# EKVX NSCLC = tested on: EKVX NSCLC
structure (smiles),measurement,setting,value
CCn1c(=O)c(Oc2ccc(F)cc2F)cc2cnc(NC3CCOCC3)nc21,GI50,HCT-15 colon,> 25 µM
same,TGI,HCT-15 colon,> 25 µM
same,GI50,IGROV1 ovarian,> 25 µM
same,TGI,IGROV1 ovarian,> 25 µM
same,GI50,SF-268 CNS,> 25 µM
same,TGI,SF-268 CNS,> 25 µM
same,GI50,NCI/ADR-RES ovarian,> 25 µM
same,TGI,NCI/ADR-RES ovarian,> 25 µM
same,GI50,RXF 393 renal,> 18.7 µM
same,TGI,RXF 393 renal,> 25 µM
same,GI50,SK-MEL-2 melanoma,> 25 µM
same,TGI,SK-MEL-2 melanoma,> 25 µM
same,GI50,NCI-H23 lung,> 25 µM
same,TGI,NCI-H23 lung,> 25 µM
same,GI50,TK-10 renal,19.7 µM
same,TGI,TK-10 renal,> 25 µM
same,GI50,786-0 renal,> 25 µM
same,TGI,786-0 renal,> 25 µM
same,GI50,HOP-92 NSCLC,3.19 µM
same,TGI,HOP-92 NSCLC,> 25 µM
same,GI50,NCI-H226 lung,> 25 µM
same,TGI,NCI-H226 lung,> 25 µM
same,GI50,OVCAR-4 ovarian,> 25 µM
same,TGI,OVCAR-4 ovarian,> 25 µM
same,GI50,M14 melanoma,> 25 µM
same,TGI,M14 melanoma,> 25 µM
same,GI50,T-47D breast,> 25 µM
same,TGI,T-47D breast,> 25 µM
same,GI50,SR leukemia,> 25 µM
same,TGI,SR leukemia,> 25 µM
same,GI50,BT-549 breast,> 25 µM
same,TGI,BT-549 breast,> 25 µM
same,GI50,MALME-3M melanoma,> 25 µM
same,TGI,MALME-3M melanoma,> 25 µM
same,GI50,HOP-62 NSCLC,> 25 µM
same,TGI,HOP-62 NSCLC,> 25 µM
same,GI50,UACC-62 melanoma,> 25 µM
same,TGI,UACC-62 melanoma,> 25 µM
same,GI50,HT29 colon,> 25 µM
same,TGI,HT29 colon,> 25 µM
same,GI50,SN12C renal,> 25 µM
same,TGI,SN12C renal,> 25 µM
same,GI50,SK-MEL-5 melanoma,> 25 µM
same,TGI,SK-MEL-5 melanoma,> 25 µM
same,GI50,CCRF-CEM leukemia,> 25 µM
same,TGI,CCRF-CEM leukemia,> 25 µM
same,GI50,CAKI-1 renal,> 25 µM
same,TGI,CAKI-1 renal,> 25 µM
same,GI50,SF-539 CNS,> 25 µM
same,TGI,SF-539 CNS,> 25 µM
same,GI50,U251 CNS,> 25 µM
same,TGI,U251 CNS,> 25 µM
same,GI50,NCI-H460 lung,> 25 µM
same,TGI,NCI-H460 lung,> 25 µM
same,GI50,SNB-75 CNS,> 25 µM
same,TGI,SNB-75 CNS,> 25 µM
same,GI50,MDA-MB-435,> 25 µM
same,TGI,MDA-MB-435,> 25 µM
same,GI50,UACC-257 melanoma,> 25 µM
same,TGI,UACC-257 melanoma,> 25 µM
same,GI50,ACHN renal,> 25 µM
same,TGI,ACHN renal,> 25 µM
same,GI50,MCF7 breast,> 25 µM
same,TGI,MCF7 breast,> 25 µM
same,GI50,SK-MEL-28 melanoma,> 25 µM
same,TGI,SK-MEL-28 melanoma,> 25 µM
same,GI50,KM12 colon,> 25 µM
same,TGI,KM12 colon,> 25 µM
same,GI50,MDA-MB-231 breast,> 25 µM
same,TGI,MDA-MB-231 breast,> 25 µM
same,GI50,UO-31 renal,5.47 µM
same,TGI,UO-31 renal,> 15.2 µM
same,GI50,SW-620 colon,> 25 µM
same,TGI,SW-620 colon,> 25 µM
same,GI50,OVCAR-3 ovarian,> 25 µM
same,TGI,OVCAR-3 ovarian,> 25 µM
same,GI50,HS 578T breast,> 16.4 µM
same,TGI,HS 578T breast,> 25 µM
same,GI50,OVCAR-8 ovarian,> 25 µM
same,TGI,OVCAR-8 ovarian,> 25 µM
same,GI50,A549 NSCLC,> 25 µM
same,TGI,A549 NSCLC,> 25 µM
same,GI50,DU-145 prostate,> 25 µM
same,TGI,DU-145 prostate,> 25 µM
same,GI50,PC-3 prostate,> 25 µM
same,TGI,PC-3 prostate,> 25 µM
same,GI50,LOX IMVI melanoma,> 25 µM
same,TGI,LOX IMVI melanoma,> 25 µM
same,GI50,A498 renal,6.94 µM
same,TGI,A498 renal,> 25 µM
same,GI50,RPMI-8226 leukemia,> 25 µM
same,TGI,RPMI-8226 leukemia,> 25 µM
same,GI50,HL-60(TB) leukemia,> 14.1 µM
same,TGI,HL-60(TB) leukemia,> 25 µM
same,GI50,COLO 205 colon,> 25 µM
same,TGI,COLO 205 colon,> 25 µM
same,GI50,SNB-19 CNS,> 25 µM
same,TGI,SNB-19 CNS,> 25 µM
same,GI50,HCT-116 colon,> 25 µM
same,TGI,HCT-116 colon,> 25 µM
same,GI50,HCC-2998 colon,> 25 µM
same,TGI,HCC-2998 colon,> 25 µM
same,GI50,K-562 leukemia,> 25 µM
same,TGI,K-562 leukemia,> 25 µM
same,GI50,NCI-H522 lung,> 25 µM
same,TGI,NCI-H522 lung,> 25 µM
same,GI50,OVCAR-5 ovarian,> 25 µM
same,TGI,OVCAR-5 ovarian,> 25 µM
same,GI50,SF-295 CNS,> 25 µM
same,TGI,SF-295 CNS,> 25 µM
same,GI50,SK-OV-3 ovarian,> 25 µM
same,TGI,SK-OV-3 ovarian,> 25 µM
same,GI50,MOLT-4 leukemia,> 25 µM
same,TGI,MOLT-4 leukemia,> 25 µM
N[C@]1(C(=O)O)C[C@@H]2C(Br)=NO[C@@H]2C1,TGI,HCT-15 colon,> 100 µM
same,TGI,SF-268 CNS,> 100 µM
same,TGI,NCI/ADR-RES ovarian,> 100 µM
same,TGI,RXF 393 renal,> 100 µM
same,TGI,SK-MEL-2 melanoma,> 100 µM
same,TGI,NCI-H23 lung,> 100 µM
same,TGI,TK-10 renal,> 100 µM
same,TGI,786-0 renal,> 100 µM
same,TGI,HOP-92 NSCLC,> 100 µM
same,TGI,NCI-H226 lung,> 100 µM
same,TGI,OVCAR-4 ovarian,> 100 µM
same,TGI,M14 melanoma,> 100 µM
same,TGI,T-47D breast,> 100 µM
same,TGI,SR leukemia,> 100 µM
same,TGI,BT-549 breast,> 100 µM
same,TGI,MALME-3M melanoma,> 100 µM
same,TGI,HOP-62 NSCLC,> 100 µM
same,TGI,EKVX NSCLC,> 100 µM
same,TGI,UACC-62 melanoma,> 100 µM
same,TGI,HT29 colon,> 100 µM
same,TGI,SK-MEL-5 melanoma,> 100 µM
same,TGI,CAKI-1 renal,> 100 µM
same,TGI,SF-539 CNS,> 100 µM
same,TGI,U251 CNS,> 100 µM
same,TGI,NCI-H460 lung,> 100 µM
same,TGI,SNB-75 CNS,> 100 µM
same,TGI,MDA-MB-435,> 100 µM
same,TGI,UACC-257 melanoma,> 100 µM
same,TGI,ACHN renal,> 100 µM
same,TGI,MCF7 breast,> 100 µM
same,TGI,KM12 colon,> 100 µM
same,TGI,MDA-MB-231 breast,> 100 µM
same,TGI,UO-31 renal,> 100 µM
same,TGI,SW-620 colon,> 100 µM
same,TGI,OVCAR-3 ovarian,> 100 µM
same,TGI,HS 578T breast,> 100 µM
same,TGI,OVCAR-8 ovarian,> 100 µM
same,TGI,A549 NSCLC,> 100 µM
same,TGI,DU-145 prostate,> 100 µM
same,TGI,PC-3 prostate,> 100 µM
same,TGI,A498 renal,> 100 µM
same,TGI,RPMI-8226 leukemia,> 100 µM
same,TGI,HL-60(TB) leukemia,> 100 µM
same,TGI,COLO 205 colon,> 100 µM
same,TGI,SNB-19 CNS,> 100 µM
same,TGI,HCT-116 colon,> 100 µM
same,TGI,HCC-2998 colon,> 100 µM
same,TGI,NCI-H522 lung,> 100 µM
same,TGI,OVCAR-5 ovarian,> 100 µM
same,TGI,SF-295 CNS,> 100 µM
same,TGI,SK-OV-3 ovarian,> 100 µM
same,TGI,MOLT-4 leukemia,> 100 µM
